Measured values from US20250230193A1, “CYCLIC COMPOUND HAVING SELECTIVE KRAS INHIBITORY EFFECT ON HRAS AND NRAS” (CHUGAI SEIYAKU KABUSHIKI KAISHA, priority 2022, published 2025).
Where a SMILES comes first, the peptide text is derived from it. Bridges are numbered along the chain shown (N, C = ends). [ ]: non-standard residue; d: D form. The star is where a group is joined. hPhe(3-Cl-4-CF3) = N[C@@H](CCc1ccc(C(F)(F)F)c(Cl)c1)C(=O)O; NPrPhe(4-CF3) = CCCN[C@@H](Cc1ccc(C(F)(F)F)cc1)C(=O)O; NMeGly(cPent) = CN[C@H](C(=O)O)C1CCCC1; NMeD = CN[C@@H](CC(=O)O)C(=O)O; NMeL = CN[C@@H](CC(C)C)C(=O)O; Morpholide = C1CN(*)CCO1; Ac5c = NC1(C(=O)O)CCCC1; Aib = CC(C)(N)C(=O)O; Sar = CNCC(=O)O

Tests used:
[1] = target: GDP-bound NRAS wild-type protein (Homo sapiens, UniProt P01111); experiment: Binding to NRAS by surface plasmon resonance (SPR), Single Cycle Kinetics; conditions: for NRAS/KRAS (ratio of KD value with respect to NRAS to KD value with respect to KRAS): GDP-bound NRAS wild-type vs GDP-bound KRAS wild-type
Chain of GDP-bound NRAS wild-type protein (P01111 whole entry): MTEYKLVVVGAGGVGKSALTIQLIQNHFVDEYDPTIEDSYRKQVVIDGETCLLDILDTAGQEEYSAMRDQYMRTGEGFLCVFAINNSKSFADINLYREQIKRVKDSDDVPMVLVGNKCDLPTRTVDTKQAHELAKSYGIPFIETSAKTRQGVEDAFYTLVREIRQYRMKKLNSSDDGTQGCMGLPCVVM

[2] = target: GDP-bound HRAS wild-type protein (Homo sapiens, UniProt P01112); experiment: Binding to HRAS by surface plasmon resonance (SPR), Single Cycle Kinetics; conditions: for HRAS/KRAS (ratio of KD value with respect to HRAS to KD value with respect to KRAS): GDP-bound HRAS wild-type vs GDP-bound KRAS wild-type
Chain of GDP-bound HRAS wild-type protein (P01112 whole entry): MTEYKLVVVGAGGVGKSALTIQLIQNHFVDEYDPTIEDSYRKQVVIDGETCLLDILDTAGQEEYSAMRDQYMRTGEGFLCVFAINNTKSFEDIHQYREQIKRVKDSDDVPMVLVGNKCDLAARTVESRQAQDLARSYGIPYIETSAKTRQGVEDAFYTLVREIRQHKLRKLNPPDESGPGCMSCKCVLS

Compound: CCCN1C(=O)CN(C)C(=O)CN(C)C(=O)[C@H]([C@@H](C)CC)NC(=O)[C@H](CC(C)C)N(C)C(=O)C[C@@H](C(=O)N2CCOCC2)N(C)C(=O)[C@H](C2CCCC2)N(C)C(=O)C(C)(C)NC(=O)[C@@H]2CCCN2C(=O)[C@H](CCc2ccc(C(F)(F)F)c(Cl)c2)NC(=O)CN(C)C(=O)[C@@H]1Cc1ccc(C(F)(F)F)cc1 [PP0230] ([NMeL]I[Sar][Sar][NPrPhe(4-CF3)][Sar][hPhe(3-Cl-4-CF3)]P[Aib][NMeGly(cPent)][NMeD]-Morpholide; lactam N-11)
- NRAS/KRAS (ratio of KD for GDP-bound NRAS wild-type to KD for KRAS) ([1]; SPR): B (a compound having 3 or more and less than 10 is denoted as B)
- HRAS/KRAS (ratio of KD for GDP-bound HRAS wild-type to KD for KRAS) ([2]; SPR): C (A compound having a KD ratio of 0.1 or more and less than 3 is denoted as C)

Compound: CCO[C@@H]1C[C@H]2C(=O)NC3(CC(C)(C)C3)C(=O)N(C)[C@@H](C3CCCC3)C(=O)N(C)[C@H](C(=O)N(C)CC)CC(=O)N(C)[C@H]3CCCC/C=C/c4ccc(cc4)C[C@@H](C(=O)N(C)CC(=O)N[C@@H](CCc4ccc(Cl)c(Cl)c4)C(=O)N2C1)N1CC/C=C\C[C@@H](C1=O)N(C)C(=O)CN(C)C(=O)[C@H]([C@@H](C)CC)NC3=O [PP2592]
- NRAS/KRAS (ratio of KD value with respect to GDP-bound NRAS wild-type protein to KD value with respect to KRAS) ([1]; class symbols): A (a compound having 10 or more and less than 20 is denoted as A)
- HRAS/KRAS (ratio of KD value with respect to GDP-bound HRAS wild-type protein to KD value with respect to KRAS) ([2]; class symbols): A (a compound having 10 or more and less than 20 is denoted as A)

Compound: CCC[C@H]1C(=O)N[C@@H]([C@@H](C)CC)C(=O)N(C)CC(=O)N(C)[C@H]2C/C=C\CCN(C2=O)[C@@H](CC2CCC(F)(F)CC2)C(=O)N(C)CC(=O)N[C@@H](CCc2ccc(C(F)(F)F)c(OC)c2)C(=O)N2C[C@H](OCC)C[C@H]2C(=O)NC2(CC(C)(C)C2)C(=O)N(C)[C@@H](C(CC)CC)C(=O)N(C)[C@H](C(=O)N(C)C)CC(=O)N1C [PP2482]
- NRAS/KRAS (ratio of KD value with respect to NRAS to KD value with respect to KRAS) ([1]; SPR): A (a compound having 10 or more and less than 20 is denoted as A)
- HRAS/KRAS (ratio of KD value with respect to HRAS to KD value with respect to KRAS) ([2]; SPR): A (a compound having 10 or more and less than 20 is denoted as A)

Compound: CCO[C@@H]1C[C@H]2C(=O)NC3(CC(C)(C)C3)C(=O)N(C)[C@@H](CC(C)(C)C)C(=O)N(C)[C@H](C(=O)N(C)C)CC(=O)N(C)[C@@H](COC)C(=O)N[C@@H]([C@@H](C)CC)C(=O)N(C3CC3)CC(=O)N(C)[C@H]3C/C=C\CCN(C3=O)[C@@H](Cc3ccc(C(F)(F)F)cc3)C(=O)N(C)CC(=O)N[C@@H](CCc3ccc(C(F)(F)F)c(OC)c3)C(=O)N2C1 [PP2748]
- NRAS/KRAS (ratio of KD value with respect to GDP-bound NRAS wild-type protein to KD value with respect to KRAS) ([1]; class symbols): A (a compound having 10 or more and less than 20 is denoted as A)
- HRAS/KRAS (ratio of KD value with respect to GDP-bound HRAS wild-type protein to KD value with respect to KRAS) ([2]; class symbols): A (a compound having 10 or more and less than 20 is denoted as A)

Compound: CCO[C@@H]1C[C@H]2C(=O)NC3(CCC3)C(=O)N(C)[C@@H](C3CCCC3)C(=O)N[C@H](C)CC(=O)N(C)[C@@H](CC)C(=O)N[C@@H]([C@@H](C)CC)C(=O)N(C)CC(=O)N(C)[C@H]3C/C=C\CCN(C3=O)[C@@H](Cc3ccc(C(F)(F)F)cc3)C(=O)N(C)CC(=O)N[C@@H](CCc3cc(F)c(C(F)(F)F)c(F)c3)C(=O)N2C1 [PP1098]
- NRAS/KRAS (ratio of KD value with respect to NRAS to KD value with respect to KRAS) ([1]; KD ratio, SPR): B (a compound having 3 or more and less than 10 is denoted as B)
- HRAS/KRAS (ratio of KD value with respect to HRAS to KD value with respect to KRAS) ([2]; KD ratio, SPR): B (a compound having 3 or more and less than 10 is denoted as B)

Compound: CCO[C@@H]1C[C@H]2C(=O)NC3(CC(C)(C)C3)C(=O)N(C)[C@@H](C3CCCC3)C(=O)N(C)[C@H](C(=O)N(C)CC)CC(=O)N(C)[C@@H](COC)C(=O)N[C@@H]([C@@H](C)CC)C(=O)N(C)CC(=O)N(C)[C@H]3C/C=C\CCN(C3=O)[C@@H](Cc3ccc(C(F)(F)F)cc3)C(=O)N(C)CC(=O)N[C@@H](CCc3ccc(C(F)(F)F)c(Cl)c3)C(=O)N2C1 [PP2836]
- NRAS/KRAS (ratio of KD value with respect to GDP-bound NRAS wild-type protein to KD value with respect to KRAS) ([1]; class symbols): A (a compound having 10 or more and less than 20 is denoted as A)
- HRAS/KRAS (ratio of KD value with respect to GDP-bound HRAS wild-type protein to KD value with respect to KRAS) ([2]; class symbols): A (a compound having 10 or more and less than 20 is denoted as A)

Compound: CCO[C@@H]1C[C@H]2C(=O)NC3(CCC3)C(=O)N(C)[C@@H](C3CCCC3)C(=O)N(C)[C@H](C(=O)N3CCOCC3)CC(=O)N(C)[C@@H](CC)C(=O)N[C@@H]([C@@H](C)CC)C(=O)N(C)CC(=O)N(C)[C@H]3CCCCN(C3=O)[C@@H](Cc3ccc(C(F)(F)F)cc3)C(=O)N(C)CC(=O)N[C@@H](CCc3cc(F)c(C(F)(F)F)c(F)c3)C(=O)N2C1 [PP0708]
- NRAS/KRAS (ratio of KD value with respect to GDP-bound NRAS wild-type protein to KD value with respect to KRAS) ([1]; SPR): B (a compound having 3 or more and less than 10 is denoted as B)
- HRAS/KRAS (ratio of KD value with respect to GDP-bound HRAS wild-type protein to KD value with respect to KRAS) ([2]; SPR): B (a compound having 3 or more and less than 10 is denoted as B)

Compound: CCCN1C(=O)CN(C)C(=O)CNC(=O)[C@H]([C@@H](C)CC)NC(=O)[C@H](CC(C)C)N(C)C(=O)C[C@@H](C(=O)N2CCOCC2)NC(=O)[C@H](C2CCCC2)N(C)C(=O)C2(CCCC2)NC(=O)[C@@H]2CCCN2C(=O)[C@H](CCc2ccc(C(F)(F)F)c(Cl)c2)NC(=O)CN(C)C(=O)[C@@H]1Cc1ccc(C(F)(F)F)cc1 [PP0325] ([NMeL]IG[Sar][NPrPhe(4-CF3)][Sar][hPhe(3-Cl-4-CF3)]P[Ac5c][NMeGly(cPent)]D-Morpholide; lactam N-11)
- NRAS/KRAS (ratio of KD for GDP-bound NRAS wild-type to KD for KRAS) ([1]; SPR): B (a compound having 3 or more and less than 10 is denoted as B)
- HRAS/KRAS (ratio of KD for GDP-bound HRAS wild-type to KD for KRAS) ([2]; SPR): B (a compound having 3 or more and less than 10 is denoted as B)
